These are literature values, as cited in patent US10001469B2, “Use of GPR83 to identify pruritus-related substances” (University of Miyazaki, priority 2010, dated 2018).

Data set [1] deals with intrathecally catheterized rats. The following applies: depending on the concentrations of peptides administered, Non-patent Document 7; cited from earlier work.
The target of data set [2] is NK1R (Homo sapiens, UniProt P25103). The following applies: Non-patent Documents 4, 5, and 6; cited from earlier work.
For data set [3], the system named is thermal hyperalgesia. The following applies: intrathecal administration; Non-patent Documents 7, 9, 10, 11; cited from earlier work.
Data set [4] deals with SP-induced scratching behavior. The following applies: pre-administration, Non-patent Documents 7 and 8; cited from earlier work.
In data set [5] the test system is HK-1-induced scratching behavior. The following applies: pre-administration, Non-patent Documents 7 and 8; cited from earlier work.

No end group written: not given here.

NK1R, sequence (P25103 whole entry, species assumed): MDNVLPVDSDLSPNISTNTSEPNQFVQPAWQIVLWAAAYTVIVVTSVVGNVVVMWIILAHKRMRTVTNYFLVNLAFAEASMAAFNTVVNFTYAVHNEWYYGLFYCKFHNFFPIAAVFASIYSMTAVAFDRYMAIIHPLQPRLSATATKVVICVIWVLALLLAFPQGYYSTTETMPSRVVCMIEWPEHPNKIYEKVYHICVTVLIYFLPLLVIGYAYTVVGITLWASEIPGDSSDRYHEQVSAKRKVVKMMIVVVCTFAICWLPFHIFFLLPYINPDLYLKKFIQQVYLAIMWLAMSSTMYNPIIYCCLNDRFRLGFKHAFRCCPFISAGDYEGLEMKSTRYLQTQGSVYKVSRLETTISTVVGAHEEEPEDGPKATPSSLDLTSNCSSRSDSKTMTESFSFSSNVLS

Regarding “Arg-Ser-Arg-Thr-Arg-Gln-Phe-Tyr-Gly-Leu-Met-NH2 (RSRTRQFYGLM-NH2; listed as Homo sapiens) [HK-1]”, the “induction of scratching behavior by intrathecal administration” value in data set [1] is given as “induces scratching behavior”. Moreover, in data set [2], the “affinity for NK1R” value is listed as “high affinity”. Besides, the “induction of thermal hyperalgesia” value in data set [3] is on record as “no such reaction at all”.

Turning to `Ic1ccccc1CN[C@@H]1C2CCN(CC2)[C@@H]1C(c1ccccc1)c1ccccc1` (racemic) [L-703,606], the “suppression of SP-induced scratching behavior” value in data set [4] was “suppressed”. Further, the “suppression of HK-1-induced scratching behavior” value in data set [5] is given as “suppressed”.
